For 1 compound, IC50 results are on record in BindingDB's records for patent US20240132480 (Cornell University, 2024).

The target in this assay is T1, Dihydrolipoyl dehydrogenase (Mycobacterium tuberculosis (strain ATCC 25618 / H37Rv), UniProt P9WHH9).
T1 sequence (P9WHH9 whole entry): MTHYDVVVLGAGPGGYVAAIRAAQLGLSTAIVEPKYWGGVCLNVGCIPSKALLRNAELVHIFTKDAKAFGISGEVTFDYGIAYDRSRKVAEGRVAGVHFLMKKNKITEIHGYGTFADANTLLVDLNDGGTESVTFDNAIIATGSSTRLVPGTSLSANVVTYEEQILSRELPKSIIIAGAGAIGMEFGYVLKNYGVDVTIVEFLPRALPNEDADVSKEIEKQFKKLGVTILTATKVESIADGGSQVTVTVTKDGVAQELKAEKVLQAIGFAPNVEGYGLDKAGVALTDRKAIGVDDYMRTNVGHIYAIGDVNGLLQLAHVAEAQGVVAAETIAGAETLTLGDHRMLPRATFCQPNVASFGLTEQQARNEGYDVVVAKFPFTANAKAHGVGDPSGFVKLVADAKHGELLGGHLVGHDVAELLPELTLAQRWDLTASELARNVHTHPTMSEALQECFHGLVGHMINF
The experiment in a line: LPD Assay with 30 min preincubation.

pIC50: −log10 of the molar value.

For `CC#CCNC(=O)CN(C)S(=O)(=O)c1cc(C)cc2cc(C#N)[nH]c12` [US20240132480, Example 210], the pIC50 – broadly, the IC50 on a negative log10 scale, so that one unit is a factor of ten – is 7.42.
